From patent US9221814B2, “Heterocyclic guanidine F1F0-atpase inhibitors and therapeutic uses thereof” (Lycera Corporation, priority 2012, dated 2015)
Read-outs that look alike come from different tables or passages of the source.

Tests used:
Ramos cells = experiment: Cytotoxicity in Ramos cells; type: cell-based; conditions: detection limit EC50=16 μM, read-out: Ramos Cell EC50
Description: (§1) Exemplary compounds described in above Examples were tested for activity against F1F0-ATPase by measuring the ability of the compounds to inhibit ATP synthesis. In addition, the compounds were assessed for cytotoxicity in Ramos cells. Inhibition of F1F0-ATPase activity in synthesizing ATP and cytotoxicity in Ramos cells were measured according to the procedures described in K. M. Johnson et al. Chemistry & Biology 2005, 12, 485-496.

F1F0-ATPase = target: T1, F1F0-ATPase (Bos taurus, UniProt P13621); experiment: Inhibition of F1F0-ATPase activity in synthesizing ATP (ATP synthesis inhibition); type: biochemical; conditions: detection limit IC50=16 μM, read-out: ATP Syn IC50
T1 construct: from tissue
Description: as §1

IC50 (F1F0-ATPase) [µM] | SMILES | EC50 (Ramos cells) [µM] | EC50 (Ramos cells; Homo sapiens) [µM]
< 5 | Cc1cc(C(=O)/N=C(\Nc2cc(-c3ccc(Cl)cc3)n[nH]2)NC(C)(C)C)n(C)n1 [Compound A-65] | 5 to 16 | 
< 5 | Cc1cc(C(=O)/N=C(/NCC(C)C)Nc2cc(-c3ccc(Cl)cc3)n[nH]2)n(C)n1 [Compound A-66] | < 5 | 
< 5 | CC(C)(C)N/C(=N/C(=O)c1nccs1)Nc1cc(C(F)(F)F)n[nH]1 [Compound A-35] | 5 to 16 | 
< 5 | CCOC(=O)NC1CCC(N/C(=N\C(=O)c2cc(C)oc2C(F)(F)F)Nc2ccccc2OC)CC1 (centres unmarked) [Compound A-213] |  | > 16
< 5 | CC(C)(C)N/C(=N/C(=O)c1ccc(Cl)s1)Nc1cc(C(F)(F)F)n[nH]1 [Compound A-211] | < 5 | 
< 5 | Cc1cc(C(=O)/N=C(\Nc2cc(-c3cc(F)cc(F)c3)[nH]n2)NC(C)C)c(C(F)(F)F)o1 [Compound A-117] | 5 to 16 | 
< 5 | Cc1cc(C(=O)/N=C(\Nc2cc(-c3ccc(F)cc3)n[nH]2)NC(C)C)c(C(F)(F)F)o1 [Compound A-195] | 5 to 16 | 
> 16 | COC[C@H](C)N/C(=N/C(=O)c1cc(C)oc1C(F)(F)F)Nc1cc(C)n[nH]1 [Compound A-113] | > 16 | 
< 5 | COc1cccc(CN/C(=N/C(=O)c2cc(C(C)(C)C)nn2C)Nc2cc(-c3ccc(F)cc3)n[nH]2)c1 [Compound A-46] | < 5 | 
< 5 | Cn1cc(C(=O)/N=C(/Nc2ccc(C(C)(C)C)cc2)Nc2cc(-c3ccc(O)cc3F)n[nH]2)c(C(F)(F)F)n1 [Compound A-151] | < 5 | 
< 5 | Cn1cc(C(=O)/N=C(\Nc2cc(-c3ccc(O)c(F)c3)n[nH]2)Nc2ccc(F)cc2F)c(C(F)(F)F)n1 [Compound A-169] | < 5 | 
< 5 | Cc1cc(C(=O)/N=C(/Nc2cc(F)cc(Cl)c2)Nc2cc(-c3cc(F)cc(F)c3)[nH]n2)c(C(F)(F)F)o1 [Compound A-115] | 5 to 16 | 
5 to 16 | CC(C)c1ccc(N/C(=N/C(=O)c2cn(C)nc2C(F)(F)F)Nc2cc(-c3ccc(O)c(F)c3)n[nH]2)cc1 [Compound A-175] | < 5 | 
> 16 | COCC(C)NC(=NC(=O)c1cn(C)nc1C(F)(F)F)Nc1n[nH]c2cc(F)ccc12 (centres unmarked) [Compound A-207] | > 16 | 
5 to 16 | CCn1nc(C)cc1C(=O)N=C(Nc1cc(-c2ccc(F)cc2)n[nH]1)NC(C)COC (centres unmarked) [Compound A-55] | 5 to 16 | 
< 5 | Cc1c(Cl)cccc1N/C(=N/C(=O)c1cn(C)nc1C(F)(F)F)Nc1cc(-c2ccc(O)c(F)c2)n[nH]1 [Compound A-184] | < 5 | 
< 5 | Cc1ccc(-c2cc(N/C(=N\C(=O)c3cnoc3C)NC3(C)CCCC3)[nH]n2)cc1F [Compound A-92] | < 5 | 
< 5 | Cc1cc(C(=O)/N=C(\Nc2ccc(C(F)(F)F)nc2)Nc2cccc(C(F)(F)F)c2)on1 [Compound A-233] |  | < 5
5 to 16 | Cc1nnsc1C(=O)/N=C(\Nc1cc(-c2ccc(F)cc2)n[nH]1)NC(C)(C)C [Compound A-47] | < 5 | 
> 16 | Cc1oncc1C(=O)/N=C(\Nc1cc(-c2ccc(Cl)cc2)[nH]n1)NC1CCCC1 [Compound A-89] | > 16 | 

IC50 (F1F0-ATPase) [µM] | SMILES | EC50 (Ramos cells) [µM] | EC50 (Ramos cells; Homo sapiens) [µM]
< 5 | Cc1ccccc1CN/C(=N/C(=O)c1cc(C(C)(C)C)nn1C)Nc1cc(-c2ccc(F)cc2)n[nH]1 [Compound A-44] | < 5 | 
< 5 | Cc1cc(C(=O)N=C(Nc2cc(-c3ccc(Cl)cc3)n[nH]2)NC(C)C)n(C)n1 [Compound A-64] |  | 5 to 16
5 to 16 | CCOC(=O)NC1CCC(N/C(=N/C(=O)c2cn(C)nc2C(F)(F)F)Nc2cc(F)cc(Cl)c2)CC1 (centres unmarked) [Compound A-219] |  | 5 to 16
< 5 | CCC(C)N/C(=N/C(=O)c1cnoc1C)Nc1cc(-c2cc(F)cc(Cl)c2)n[nH]1 (centres unmarked) [Compound A-101] | < 5 | 
5 to 16 | Cc1ccc(Cl)cc1N/C(=N/C(=O)c1cn(C)nc1C(F)(F)F)Nc1cc(-c2ccc(O)c(F)c2)n[nH]1 [Compound A-186] | > 16 | 
< 5 | Cn1cc(C(=O)/N=C(/Nc2cc(F)cc(F)c2)Nc2cc(-c3ccc(O)c(F)c3)n[nH]2)c(C(F)(F)F)n1 [Compound A-174] | < 5 | 
> 16 | Cc1oncc1C(=O)N=C(Nc1cc(-c2ccc(Cl)cc2)n[nH]1)NC(C)C [Compound A-70] |  | > 16
5 to 16 | CCCn1ccc(C(=O)N=C(Nc2cc(-c3ccc(F)cc3)n[nH]2)NC(C)C)n1 [Compound A-59] |  | 5 to 16
5 to 16 | COC[C@H](C)N/C(=N/C(=O)c1cnoc1C)Nc1cc(-c2cc(F)cc(F)c2)[nH]n1 [Compound A-80] | > 16 | 
5 to 16 | CC(C)N/C(=N/C(=O)c1ccn(C(C)C)n1)Nc1cc(-c2ccc(F)cc2)n[nH]1 [Compound A-57] | 5 to 16 | 
< 5 | COc1ccc(-c2cc(N/C(=N\C(=O)c3cn(C)nc3C(F)(F)F)Nc3ccc(F)cc3Cl)[nH]n2)cc1F [Compound A-147] | > 16 | 
< 5 | CCOC(=O)NC1CCC(N/C(=N\C(=O)c2cc(C)oc2C(F)(F)F)Nc2ccccc2C)CC1 (centres unmarked) [Compound A-216] |  | 5 to 16
> 16 | CCOCCCN/C(=N/C(=O)c1cnoc1C)Nc1cc(-c2ccc(Cl)cc2)n[nH]1 [Compound A-104] | > 16 | 
> 16 | CC(C)CN/C(=N/C(=O)c1cn(C)nc1C(F)(F)F)Nc1n[nH]c2cc(F)ccc12 [Compound A-205] | > 16 | 
< 5 | CC(C)c1cc(C(=O)/N=C(\Nc2cc(-c3ccc(F)cc3)n[nH]2)NC(C)(C)C)on1 [Compound A-61] | < 5 | 
5 to 16 | CC(C)N/C(=N/C(=O)c1cn(C)nc1C(F)(F)F)Nc1cc(-c2ccc(O)c(F)c2)n[nH]1 [Compound A-152] | 5 to 16 | 
< 5 | CCOC(=O)NC1CCC(N/C(=N\C(=O)c2cc(C)oc2C(F)(F)F)Nc2ccccc2C(F)(F)F)CC1 (centres unmarked) [Compound A-214] |  | > 16
< 5 | Cc1oncc1C(=O)N=C(Nc1cc(-c2cc(F)cc(Cl)c2)n[nH]1)NC1CCCC1 [Compound A-97] |  | < 5
< 5 | Cn1cc(C(=O)/N=C(/Nc2cccc(F)c2)Nc2cc(-c3ccc(O)c(F)c3)n[nH]2)c(C(F)(F)F)n1 [Compound A-166] | < 5 | 
< 5 | CCOC(=O)NC1CCC(N/C(=N\C(=O)c2cc(C)oc2C(F)(F)F)Nc2cc(F)cc(Cl)c2)CC1 (centres unmarked) [Compound A-127] |  | < 5

IC50 (F1F0-ATPase) [µM] | SMILES | EC50 (Ramos cells) [µM] | EC50 (Ramos cells; Homo sapiens) [µM]
< 5 | Cn1cc(C(=O)/N=C(/Nc2cc(-c3cc(F)cc(F)c3)n[nH]2)NC2CCC2)c(C(F)(F)F)n1 [Compound A-28] | < 5 | 
> 16 | CCOC(=O)NC1CCC(N/C(=N/C(=O)c2cn(C)nc2C(F)(F)F)Nc2cc(F)cc(F)c2)CC1 (centres unmarked) [Compound A-217] |  | > 16
> 16 | Cc1oncc1C(=O)/N=C(/NCCCOC(C)C)Nc1cc(-c2cc(F)cc(Cl)c2)[nH]n1 [Compound A-103] | > 16 | 
5 to 16 | Cn1cc(C(=O)/N=C(/Nc2cccc(O)c2)Nc2cc(-c3ccc(O)c(F)c3)n[nH]2)c(C(F)(F)F)n1 [Compound A-170] | < 5 | 
< 5 | Cn1nc(C(C)(C)C)cc1C(=O)N/C(=N/c1cccc(O)n1)Nc1cc(F)cc(Cl)c1 [Compound A-235] |  | < 5
< 5 | Cc1cc(C(=O)/N=C(/NCc2ccccc2C)Nc2cc(-c3ccc(F)cc3)n[nH]2)no1 [Compound A-42] | 5 to 16 | 
< 5 | Cc1cc(C(=O)/N=C(\Nc2ccc(C(F)(F)F)nc2)Nc2cccc(Cl)c2)on1 [Compound A-232] |  | < 5
< 5 | CCOCCCNC(=NC(=O)c1cc(C)oc1C(F)(F)F)Nc1cc(-c2ccc(F)cc2)n[nH]1 [Compound A-199] |  | < 5
< 5 | CC(C)N/C(=N/C(=O)c1cc(C(C)C)no1)Nc1cc(-c2ccc(F)cc2)n[nH]1 [Compound A-63] | 5 to 16 | 
< 5 | Cn1cc(C(=O)/N=C(\Nc2cc(-c3ccc(O)cc3F)[nH]n2)NC(C)(C)C)c(C(F)(F)F)n1 [Compound A-136] | < 5 | 
> 16 | Cc1oncc1C(=O)/N=C(/NCC(C)C)Nc1cc(-c2ccc(Cl)cc2)n[nH]1 [Compound A-69] | > 16 | 
5 to 16 | CC(C)(C)N/C(=N/C(=O)c1ccno1)Nc1cc(-c2ccc(F)cc2)n[nH]1 [Compound A-38] | 5 to 16 | 
> 16 | Cn1cc(C(=O)/N=C(/NCC(C)(C)C)Nc2cc(-c3ccc(O)cc3F)[nH]n2)c(C(F)(F)F)n1 [Compound A-138] | > 16 | 
5 to 16 | COc1ccc(-c2cc(N/C(=N\C(=O)c3cn(C)nc3C(F)(F)F)Nc3ccc(C(C)(C)C)cc3)[nH]n2)cc1F [Compound A-148] | 5 to 16 | 
> 16 | Cc1oncc1C(=O)/N=C(\Nc1cc(-c2ccc(F)cc2)[nH]n1)NC1CCC1 [Compound A-125] | > 16 | 
< 5 | Cn1cc(C(=O)/N=C(/Nc2ccc(C(C)(C)C)cc2)Nc2cc(-c3ccc(O)c(F)c3)n[nH]2)c(C(F)(F)F)n1 [Compound A-165] | < 5 | 
< 5 | COc1ccc(-c2cc(N/C(=N\C(=O)c3cn(C)nc3C(F)(F)F)Nc3cc(F)cc(Cl)c3)n[nH]2)cc1F [Compound A-131] | > 16 | 
> 16 | CC(C)N/C(=N/C(=O)c1cn(C)nc1C(F)(F)F)Nc1cc(-c2ccc(O)cc2F)n[nH]1 [Compound A-149] | > 16 | 
